# Measurements taken from patent publication US6787517B1 (priority 2000, dated 2004).
# Test system: digitonin-permeabilized bovine adrenochromaffin cells
# Type: cell-based
substance,measurement,value
botulinum toxin type A,inhibition of Ca2+-stimulated catecholamine release,inhibition
